Data as given in patent US6376497B1, “Antifungal azole derivatives having a fluorinated vinyl group and process for preparing same” (Korea Research Institute of Chemical Technology, priority 1999, dated 2002).
Converted amounts (≈) assume the structure as drawn. Where two headings read alike, the source gives them in different places.

Columns and labels:
Assay in all cases: In vitro antifungal activity, microbroth dilution MIC
Assay type in all cases: cell-based
[1] = test system: Candida albicans A. 10231; conditions: Candida albicans, 4 to 48 hours
How it was run: (§1)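 Broth microdilution adapted from NCCLS M27, in RPMI-1640 with 0.165 M MOPS, pH 7.0. Yeast or mould inoculum at 2×10^3 CFU/ml was mixed 1:1 with DMSO-derived compound solutions (200 to 0.10 μg/ml before mixing) and incubated at 35 °C for 4 to 48 h. MIC was the concentration showing no growth.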

[2] = test system: Aspergillus furnigatus B. 19119; conditions: Aspergillus
How it was run: as §1

[3] = test system: Candida tropicalis A. 13803; conditions: Candida tropicalis, 4 to 48 hours
How it was run: as §1

[4] = test system: Candida pseudotropicalis K. 11658; conditions: Kluyveromyces marxianus, 4 to 48 hours
How it was run: as §1

[5] = test system: Candida krusei K. 11655; conditions: Pichia kudriavzevii, 4 to 48 hours
How it was run: as §1

[6] = test system: Candida parapsitosis A. 7330; conditions: Candida, 4 to 48 hours
How it was run: as §1

[7] = test system: Candida albicans IFO. 1385; conditions: Candida albicans, 4 to 48 hours
How it was run: as §1

[8] = test system: Trichophyton mentagrophytes A. 9129; conditions: Trichophyton mentagrophytes
How it was run: as §1

[9] = test system: Candida albicans C1-2; conditions: Candida albicans, 4 to 48 hours
How it was run: as §1

[10] = test system: Cryptococcus neoformans B. 42419; conditions: Cryptococcus neoformans, 4 to 48 hours
How it was run: as §1

[11] = test system: Cryptococcus neoformans IFM. 40092; conditions: Cryptococcus neoformans
How it was run: as §1

[12] = test system: Cryptococcus neoformans A. 34144; conditions: Cryptococcus neoformans
How it was run: as §1

[13] = test system: Aspergillus niger A. 16404; conditions: Aspergillus niger
How it was run: as §1

[14] = test system: Torulopsis glabrata B. 16205; conditions: Nakaseomyces glabratus, 4 to 48 hours
How it was run: as §1

[15] = A.10231, RPMI-1640, 35° C., no growth observed, read-out: Minimal inhibitory concentration(MIC), C. albicans A. 10231
[16] = C. albicans A. 10231, RPMI-1640, 35° C., read-out: Minimal inhibitory concentration (MIC)
[17] = A furnigatus B. 19119, RPMI-1640, 35° C., 4 to 48 hours, read-out: Minimal inhibitory concentration (MIC)
[18] = B.19119, RPMI-1640, 35° C., 4 to 48 hours, no growth observed, read-out: Minimal inhibitory concentration(MIC), A furnigatus B. 19119
[19] = B.19119, RPMI-1640, 35° C., no growth observed, read-out: Minimal inhibitory concentration (MIC), A furnigatus B. 19119
[20] = A.13803, RPMI-1640, 35° C., no growth observed, read-out: Minimal inhibitory concentration(MIC), C. tropicalis A. 13803
[21] = C. tropicalis A. 13803, RPMI-1640, 35° C., read-out: Minimal inhibitory concentration (MIC)
[22] = C. pseudotropicalis K. 11658, RPMI-1640, 35° C., read-out: Minimal inhibitory concentration (MIC)
[23] = K.11658, RPMI-1640, 35° C., no growth observed, read-out: Minimal inhibitory concentration(MIC), C. pseudotropicalis K. 11658
[24] = C. krusei K. 11655, RPMI-1640, 35° C., read-out: Minimal inhibitory concentration (MIC)
[25] = K.11655, RPMI-1640, 35° C., no growth observed, read-out: Minimal inhibitory concentration(MIC), C. krusei K. 11655
[26] = A.7330, RPMI-1640, 35° C., no growth observed, read-out: Minimal inhibitory concentration(MIC), C. parapsitosis A. 7330
[27] = C. parapsitosis A. 7330, RPMI-1640, 35° C., read-out: Minimal inhibitory concentration (MIC)
[28] = C. albicans IFO. 1385, RPMI-1640, 35° C., read-out: Minimal inhibitory concentration (MIC)
[29] = IFO.1385, RPMI-1640, 35° C., no growth observed, read-out: Minimal inhibitory concentration(MIC), C. albicans IFO. 1385
[30] = A.9129, RPMI-1640, 35° C., 4 to 48 hours, no growth observed, read-out: Minimal inhibitory concentration(MIC), T. mentagrophytes A. 9129
[31] = A.9129, RPMI-1640, 35° C., no growth observed, read-out: Minimal inhibitory concentration (MIC), T. mentagrophytes A. 9129
[32] = T. mentagrophytes A. 9129, RPMI-1640, 35° C., 4 to 48 hours, read-out: Minimal inhibitory concentration (MIC)
[33] = C12, C. albicans C1-2, RPMI-1640, 35° C., read-out: Minimal inhibitory concentration (MIC)
[34] = C12, RPMI-1640, 35° C., no growth observed, read-out: Minimal inhibitory concentration(MIC), C. albicans C1-2
[35] = B.42419, RPMI-1640, 35° C., no growth observed, read-out: Minimal inhibitory concentration(MIC), Cry. neoformans B. 42419
[36] = Cry. neoformans B. 42419, RPMI-1640, 35° C., read-out: Minimal inhibitory concentration (MIC)
[37] = Cry. neoformans IFM. 40092, RPMI-1640, 35° C., 4 to 48 hours, read-out: Minimal inhibitory concentration (MIC)
[38] = IFM.40092, RPMI-1640, 35° C., 4 to 48 hours, no growth observed, read-out: Minimal inhibitory concentration(MIC), Cry. neoformans IFM. 40092
[39] = IFM.40092, RPMI-1640, 35° C., no growth observed, read-out: Minimal inhibitory concentration (MIC), Cry. neoformans IFM. 40092
[40] = A.34144, RPMI-1640, 35° C., 4 to 48 hours, no growth observed, read-out: Minimal inhibitory concentration(MIC), Cry. neoformans A. 34144
[41] = A.34144, RPMI-1640, 35° C., no growth observed, read-out: Minimal inhibitory concentration (MIC), Cry. neoformans A. 34144
[42] = Cry. neoformans A. 34144, RPMI-1640, 35° C., 4 to 48 hours, read-out: Minimal inhibitory concentration (MIC)
[43] = A. niger A. 16404, RPMI-1640, 35° C., 4 to 48 hours, read-out: Minimal inhibitory concentration (MIC)
[44] = A.16404, RPMI-1640, 35° C., 4 to 48 hours, no growth observed, read-out: Minimal inhibitory concentration(MIC), A. niger A. 16404
[45] = A.16404, RPMI-1640, 35° C., no growth observed, read-out: Minimal inhibitory concentration (MIC), A. niger A. 16404
[46] = B.16205, RPMI-1640, 35° C., no growth observed, read-out: Minimal inhibitory concentration(MIC), T. glabrata B. 16205
[47] = T. glabrata B. 16205, RPMI-1640, 35° C., read-out: Minimal inhibitory concentration (MIC)

| Structure (SMILES) | MIC [1, 15] | MIC [1, 16] | MIC [2, 17] | MIC [2, 18] | MIC [2, 19] | MIC [3, 20] | MIC [3, 21] | MIC [4, 22] | MIC [4, 23] | MIC [5, 24] | MIC [5, 25] | MIC [6, 26] | MIC [6, 27] | MIC [7, 28] | MIC [7, 29] | MIC [8, 30] | MIC [8, 31] | MIC [8, 32] | MIC [9, 33] | MIC [9, 34] | other results |
| --- | --- | --- | --- | --- | --- | --- | --- | --- | --- | --- | --- | --- | --- | --- | --- | --- | --- | --- | --- | --- | --- |
| CCC(C)n1ncn(-c2ccc(N3CCN(c4ccc(OCC5COC(Cn6cncn6)(c6ccc(Cl)cc6Cl)O5)cc4)CC3)cc2)c1=O (stereo not drawn) [itraconazole, reference compound] | > 100 µg/mL | > 100 µg/mL | ≤ 0.1 µg/mL | ≤ 0.1 µg/mL | ≤ 0.1 µg/mL | > 100 µg/mL | > 100 µg/mL | 0.39 µg/mL (≈ 0.553 µM) | 0.39 µg/mL (≈ 0.553 µM) | 0.39 µg/mL (≈ 0.553 µM) | 0.39 µg/mL (≈ 0.553 µM) | 0.78 µg/mL (≈ 1.11 µM) | 0.78 µg/mL (≈ 1.11 µM) | 1.56 µg/mL (≈ 2.21 µM) | 1.56 µg/mL (≈ 2.21 µM) | ≤ 0.1 µg/mL | ≤ 0.1 µg/mL | ≤ 0.1 µg/mL | > 100 µg/mL | > 100 µg/mL | MIC [10, 35]: 0.39 µg/mL (≈ 0.553 µM); MIC [10, 36]: 0.39 µg/mL (≈ 0.553 µM); MIC [11, 37]: ≤ 0.1 µg/mL; MIC [11, 38]: ≤ 0.1 µg/mL; MIC [11, 39]: ≤ 0.1 µg/mL; MIC [12, 40]: 0.39 µg/mL (≈ 0.553 µM); MIC [12, 41]: 0.39 µg/mL (≈ 0.553 µM); MIC [12, 42]: 0.39 µg/mL (≈ 0.553 µM); MIC [13, 43]: 1.56 µg/mL (≈ 2.21 µM); MIC [13, 44]: 1.56 µg/mL (≈ 2.21 µM); MIC [13, 45]: 1.56 µg/mL (≈ 2.21 µM); MIC [14, 46]: 50 µg/mL (≈ 70.9 µM); MIC [14, 47]: 50 µg/mL (≈ 70.9 µM) |
| OC(Cn1cncn1)(Cn1cncn1)c1ccc(F)cc1F [fluconazole, reference compound] | > 100 µg/mL | > 100 µg/mL | > 100 µg/mL | > 100 µg/mL | > 100 µg/mL | > 100 µg/mL | > 100 µg/mL | 12.5 µg/mL (≈ 40.8 µM) | 12.5 µg/mL (≈ 40.8 µM) | 25 µg/mL (≈ 81.6 µM) | 25 µg/mL (≈ 81.6 µM) | 12.5 µg/mL (≈ 40.8 µM) | 12.5 µg/mL (≈ 40.8 µM) | 12.5 µg/mL (≈ 40.8 µM) | 12.5 µg/mL (≈ 40.8 µM) | 50 µg/mL (≈ 163 µM) | 50 µg/mL (≈ 163 µM) | 50 µg/mL (≈ 163 µM) | > 100 µg/mL | > 100 µg/mL | MIC [10, 35]: 25 µg/mL (≈ 81.6 µM); MIC [10, 36]: 25 µg/mL (≈ 81.6 µM); MIC [11, 37]: 3.13 µg/mL (≈ 10.2 µM); MIC [11, 38]: 3.13 µg/mL (≈ 10.2 µM); MIC [11, 39]: 3.13 µg/mL (≈ 10.2 µM); MIC [12, 40]: 12.5 µg/mL (≈ 40.8 µM); MIC [12, 41]: 12.5 µg/mL (≈ 40.8 µM); MIC [12, 42]: 12.5 µg/mL (≈ 40.8 µM); MIC [13, 43]: > 100 µg/mL; MIC [13, 44]: > 100 µg/mL; MIC [13, 45]: > 100 µg/mL; MIC [14, 46]: 100 µg/mL (≈ 327 µM); MIC [14, 47]: 100 µg/mL (≈ 327 µM) |
